Publication PMC7531004, “Discovery of gramicidin A analogues with altered activities by multidimensional screening of a one-bead-one-compound library” (Nature Communications, 2020)
Where a SMILES comes first, the peptide text is derived from it. [ ]: non-standard residue; d: D form. The star is where a group is joined. NHCH2CH2OH = OCCN*; For = O=C*

Experiments:
[1] = H+/Na+ transport assay of bead-derived peptides (one-point); assay type: biochemical; design: key: relative activity; mean of two control wells = 1.00; conditions: bead-derived peptide solution, EYPC/EYPG LUVs;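 further: relative to parent gramicidin A activity set to 1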
How it was run: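 H+/Na+ transport is monitored through pyranine fluorescence in freshly extruded LUVs after a 30-min room-temperature vortex with each library peptide at a single concentration. Signals are normalized to detergent (Triton X-100) and untreated controls.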

[2] = cell viability/%
How it was run: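 First, library peptide stocks are diluted 250-fold in RPMI1640 with 10% heat-inactivated FBS. Next, they are mixed with P388 cells to give 1 × 10^4 cells/mL and incubated 92 h at 37 °C, 5% CO2. Finally, viability (%) is scored by WST-1 absorbance at 415 nm.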

[3] = system: Streptococcus pyogenes SSI-9; experiment: Antibacterial activity assay of bead-derived peptides (three concentrations); assay type: cell-based; design: key: +++: inhibition by the 640-fold diluted peptide solution; ++: inhibition by the 160-fold diluted solution; +: inhibition by the 40-fold diluted solution; -: no inhibition; conditions: S. pyogenes, bead-derived peptide solution, three concentrations
How it was run: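 Three stock dilutions per peptide (none, 4-fold, 16-fold in DMSO) are screened in 96-well format. The medium is blood-supplemented cation-adjusted MHB, inoculated with 2 × 10^5 CFU S. pyogenes SSI-9. Growth is read as cell precipitation at 18 h, 37 °C.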

Row | Structure (SMILES) | H+/Na+ transport activity normalized against the value of 1 (1.00) [1] | viability [2] [%] | antibacterial activity [3]
1 | CC(C)C[C@@H](NC(=O)[C@H](Cc1c[nH]c2ccccc12)NC(=O)[C@H](NC(=O)[C@H](Cc1c[nH]c2ccccc12)NC(=O)[C@@H](CC(C)C)NC(=O)[C@@H](NC(=O)[C@H](NC(=O)[C@H](C)NC(=O)[C@H](NC(=O)[C@H](C)NC(=O)CNC(=O)[C@@H](NC=O)C(C)C)C(C)C)C(C)C)C(C)C)C(C)C)C(=O)N[C@@H](Cc1c[nH]c2ccccc12)C(=O)N[C@@H](C(=O)N[C@@H](Cc1c[nH]c2ccccc12)C(=O)NCCO)[C@H](C)O [compound 8580] (For-VGA[dV]A[dV]V[dL]W[dV]W[dL]W[dT]W-NHCH2CH2OH) | 1.01 | 60.6 | +
2 | CC(C)C[C@@H](NC(=O)[C@H](C)NC(=O)[C@H](NC(=O)[C@H](C)NC(=O)CNC(=O)[C@@H](NC=O)C(C)C)C(C)C)C(=O)N[C@H](C(=O)N[C@H](CC(C)C)C(=O)N[C@@H](Cc1c[nH]c2ccccc12)C(=O)N[C@H](CC(C)C)C(=O)N[C@@H](Cc1c[nH]c2ccccc12)C(=O)N[C@H](CC(C)C)C(=O)N[C@@H](Cc1c[nH]c2ccccc12)C(=O)N[C@@H](C(=O)N[C@@H](Cc1c[nH]c2ccccc12)C(=O)NCCO)[C@H](C)O)C(C)C [compound 129] (For-VGA[dV]A[dL]V[dL]W[dL]W[dL]W[dT]W-NHCH2CH2OH) | 1.05 | 100 | +
3 | CC(C)C[C@@H](NC(=O)[C@H](C)NC(=O)CNC(=O)[C@@H](NC=O)C(C)C)C(=O)N[C@@H](C)C(=O)N[C@@H](C(=O)N[C@H](C(=O)N[C@@H](C(=O)N[C@@H](Cc1c[nH]c2ccccc12)C(=O)N[C@@H](C(=O)N[C@@H](Cc1c[nH]c2ccccc12)C(=O)N[C@@H](C(=O)N[C@@H](Cc1c[nH]c2ccccc12)C(=O)N[C@H](CC(C)C)C(=O)N[C@@H](Cc1c[nH]c2ccccc12)C(=O)NCCO)C(C)C)C(C)C)[C@H](C)O)C(C)C)C(C)C [compound 285] (For-VGA[dL]A[dV]V[dT]W[dV]W[dV]W[dL]W-NHCH2CH2OH) | 1.08 | 100 | -
4 | CC(C)C[C@@H](NC(=O)[C@H](C)NC(=O)CNC(=O)[C@@H](NC=O)C(C)C)C(=O)N[C@@H](C)C(=O)N[C@H](CC(C)C)C(=O)N[C@H](C(=O)N[C@H](CC(C)C)C(=O)N[C@@H](Cc1c[nH]c2ccccc12)C(=O)N[C@H](CC(C)C)C(=O)N[C@@H](Cc1c[nH]c2ccccc12)C(=O)N[C@H](CC(C)C)C(=O)N[C@@H](Cc1c[nH]c2ccccc12)C(=O)N[C@H](CC(C)C)C(=O)N[C@@H](Cc1c[nH]c2ccccc12)C(=O)NCCO)C(C)C [compound 2904] (For-VGA[dL]A[dL]V[dL]W[dL]W[dL]W[dL]W-NHCH2CH2OH) | 1.09 | 12.5 | -
5 | CC(C)C[C@@H](NC(=O)[C@H](Cc1c[nH]c2ccccc12)NC(=O)[C@H](NC(=O)[C@H](Cc1c[nH]c2ccccc12)NC(=O)[C@H](NC(=O)[C@H](Cc1c[nH]c2ccccc12)NC(=O)[C@H](NC(=O)[C@@H](NC(=O)[C@H](NC(=O)[C@H](C)NC(=O)[C@H](NC(=O)[C@H](C)NC(=O)CNC(=O)[C@@H](NC=O)C(C)C)C(C)C)C(C)C)C(C)C)[C@H](C)O)C(C)C)C(C)C)C(=O)N[C@@H](Cc1c[nH]c2ccccc12)C(=O)NCCO [compound 5542] (For-VGA[dV]A[dV]V[dT]W[dV]W[dV]W[dL]W-NHCH2CH2OH) | 1.17 | 100 | -
6 | CC(C)C[C@@H](NC(=O)[C@H](C)NC(=O)CNC(=O)[C@@H](NC=O)C(C)C)C(=O)N[C@@H](C)C(=O)N[C@H](CC(C)C)C(=O)N[C@H](C(=O)N[C@@H](C(=O)N[C@@H](Cc1c[nH]c2ccccc12)C(=O)N[C@H](CC(C)C)C(=O)N[C@@H](Cc1c[nH]c2ccccc12)C(=O)N[C@@H](C(=O)N[C@@H](Cc1c[nH]c2ccccc12)C(=O)N[C@H](CC(C)C)C(=O)N[C@@H](Cc1c[nH]c2ccccc12)C(=O)NCCO)C(C)C)C(C)C)C(C)C [compound 11305] (For-VGA[dL]A[dL]V[dV]W[dL]W[dV]W[dL]W-NHCH2CH2OH) | 1.26 | 15.5 | +
7 | CC(C)C[C@@H](NC(=O)[C@H](C)NC(=O)[C@H](NC(=O)[C@H](C)NC(=O)CNC(=O)[C@@H](NC=O)C(C)C)C(C)C)C(=O)N[C@H](C(=O)N[C@@H](C(=O)N[C@@H](Cc1c[nH]c2ccccc12)C(=O)N[C@H](CC(C)C)C(=O)N[C@@H](Cc1c[nH]c2ccccc12)C(=O)N[C@@H](C(=O)N[C@@H](Cc1c[nH]c2ccccc12)C(=O)N[C@H](CC(C)C)C(=O)N[C@@H](Cc1c[nH]c2ccccc12)C(=O)NCCO)[C@H](C)O)[C@H](C)O)C(C)C [compound 4195] (For-VGA[dV]A[dL]V[dT]W[dL]W[dT]W[dL]W-NHCH2CH2OH) | 1.19 | 90.6 | -
8 | CC(C)C[C@@H](NC(=O)[C@H](C)NC(=O)CNC(=O)[C@@H](NC=O)C(C)C)C(=O)N[C@@H](C)C(=O)N[C@H](CC(C)C)C(=O)N[C@H](C(=O)N[C@H](CC(C)C)C(=O)N[C@@H](Cc1c[nH]c2ccccc12)C(=O)N[C@@H](C(=O)N[C@@H](Cc1c[nH]c2ccccc12)C(=O)N[C@H](CC(C)C)C(=O)N[C@@H](Cc1c[nH]c2ccccc12)C(=O)N[C@@H](C(=O)N[C@@H](Cc1c[nH]c2ccccc12)C(=O)NCCO)C(C)C)[C@H](C)O)C(C)C [compound 5561] (For-VGA[dL]A[dL]V[dL]W[dT]W[dL]W[dV]W-NHCH2CH2OH) | 1.05 | 100 | -
9 | CNC(=O)C[C@@H](NC(=O)[C@H](Cc1c[nH]c2ccccc12)NC(=O)[C@H](NC(=O)[C@H](Cc1c[nH]c2ccccc12)NC(=O)[C@@H](CC(C)C)NC(=O)[C@@H](NC(=O)[C@@H](CC(C)C)NC(=O)[C@H](C)NC(=O)[C@@H](CC(C)C)NC(=O)[C@H](C)NC(=O)CNC(=O)[C@@H](NC=O)C(C)C)C(C)C)C(C)C)C(=O)N[C@@H](Cc1c[nH]c2ccccc12)C(=O)N[C@@H](C(=O)N[C@@H](Cc1c[nH]c2ccccc12)C(=O)NCCO)[C@H](C)O [compound 3885] (For-VGA[dL]A[dL]V[dL]W[dV]W[dD](NHMe)W[dT]W-NHCH2CH2OH) | 1.00 | 100 | -
10 | CNC(=O)C[C@@H](NC(=O)[C@H](Cc1c[nH]c2ccccc12)NC(=O)[C@H](NC(=O)[C@H](Cc1c[nH]c2ccccc12)NC(=O)[C@@H](CC(C)C)NC(=O)[C@H](Cc1c[nH]c2ccccc12)NC(=O)[C@H](NC(=O)[C@@H](NC(=O)[C@@H](CC(C)C)NC(=O)[C@H](C)NC(=O)[C@@H](CC(C)C)NC(=O)[C@H](C)NC(=O)CNC(=O)[C@@H](NC=O)C(C)C)C(C)C)C(C)C)C(C)C)C(=O)N[C@@H](Cc1c[nH]c2ccccc12)C(=O)NCCO [compound 8516] (For-VGA[dL]A[dL]V[dV]W[dL]W[dV]W[dD](NHMe)W-NHCH2CH2OH) | 1.09 | 48.7 | -
11 | CC(C)C[C@@H](NC(=O)[C@H](C)NC(=O)[C@H](NC(=O)[C@H](C)NC(=O)CNC(=O)[C@@H](NC=O)C(C)C)C(C)C)C(=O)N[C@H](C(=O)N[C@H](CC(C)C)C(=O)N[C@@H](Cc1c[nH]c2ccccc12)C(=O)N[C@@H](C(=O)N[C@@H](Cc1c[nH]c2ccccc12)C(=O)N[C@@H](C(=O)N[C@@H](Cc1c[nH]c2ccccc12)C(=O)N[C@@H](C(=O)N[C@@H](Cc1c[nH]c2ccccc12)C(=O)NCCO)[C@H](C)O)C(C)C)C(C)C)C(C)C [compound 6959] (For-VGA[dV]A[dL]V[dL]W[dV]W[dV]W[dT]W-NHCH2CH2OH) | 1.06 | 100 | +
12 | CC(C)C[C@@H](NC(=O)[C@H](C)NC(=O)[C@H](NC(=O)[C@H](C)NC(=O)CNC(=O)[C@@H](NC=O)C(C)C)C(C)C)C(=O)N[C@H](C(=O)N[C@@H](C(=O)N[C@@H](Cc1c[nH]c2ccccc12)C(=O)N[C@@H](C(=O)N[C@@H](Cc1c[nH]c2ccccc12)C(=O)N[C@@H](C(=O)N[C@@H](Cc1c[nH]c2ccccc12)C(=O)N[C@H](CC(C)C)C(=O)N[C@@H](Cc1c[nH]c2ccccc12)C(=O)NCCO)[C@H](C)O)C(C)C)C(C)C)C(C)C [compound 2727] (For-VGA[dV]A[dL]V[dV]W[dV]W[dT]W[dL]W-NHCH2CH2OH) | 1.05 | 100 | -
13 | CC(C)C[C@@H](NC(=O)[C@H](C)NC(=O)CNC(=O)[C@@H](NC=O)C(C)C)C(=O)N[C@@H](C)C(=O)N[C@@H](C(=O)N[C@H](C(=O)N[C@H](CC(C)C)C(=O)N[C@@H](Cc1c[nH]c2ccccc12)C(=O)N[C@@H](C(=O)N[C@@H](Cc1c[nH]c2ccccc12)C(=O)N[C@@H](C(=O)N[C@@H](Cc1c[nH]c2ccccc12)C(=O)N[C@@H](C(=O)N[C@@H](Cc1c[nH]c2ccccc12)C(=O)NCCO)[C@H](C)O)C(C)C)C(C)C)C(C)C)C(C)C [compound 11625] (For-VGA[dL]A[dV]V[dL]W[dV]W[dV]W[dT]W-NHCH2CH2OH) | 1.08 | 100 | -
